Laboratory results as given in article PMC11960843, “Exploration of the tunability of BRD4 degradation by DCAF16 trans-labelling covalent glues” (European journal of medicinal chemistry, 2024).
pIC50: −log10 of the molar value.

Assays:
BRD4BD1 = BRD4BD1 (Homo sapiens, UniProt O60885); experiment: BRD4 AlphaScreen competition assay (JQ1-biotin displacement), BRD4BD1; format: binding; settings: read-out: IC50 BRD4BD1
BRD4BD2 [1] = biological target: T1, BRD4BD2 (Homo sapiens, UniProt O60885); experiment: BRD4 AlphaScreen competition assay (JQ1-biotin displacement), BRD4BD2; format: binding; settings: read-out: IC50 BRD4BD2
[2] = biological target: T2, BRD4BD2-DCAF16 ternary complex (Homo sapiens, UniProt O60885+Q9NXF7); experiment: DDB1-DCAF16-BRD4BD2 TR-FRET ternary complex formation assay; format: biochemical; settings: for TR-FRETmax (520 nm/490 nm ratio): 6 h degrader incubation; for incubation time of saturation / maximum TR-FRET signal: measured at 1, 2, 4, 6 and 24 h; for BRD4BD2-DCAF16 ternary complex formation / DCAF16 recruitment (in words): time-dependent TR-FRET
T2 construct: E3 ligase to bromodomain 2 (BRD4BD2); His6 (N); StrepII (N); Avi (N); made in house; host or cells: BRD4BD2: E. coli (pET100/D-TOPO)
Source text: To determine the relationship between covalent warheads and DCAF16 recruitment to BRD4BD2, we used a time-resolved fluorescence energy transfer (TR-FRET) assay to measure induced BRD4BD2-DCAF16 ternary complex formation (Fig. 3A).
Furthermore, we wanted to determine the kinetics of the BRD4BD2-DCAF16 interaction given its covalent nature. […] Additionally, to understand the relationship between ternary complex formation kinetics and warhead reactivity we measured the depletion of the covalent analogs in the presence of glutathione using MS (Table S2). […] Titrations of compounds to induce the DCAF16-BRD4BD complex were carried out by mixing 100 nM biotinylated BRD4BD2, 500 nM BODIPY-FL labeled DDB1ΔB-DCAF16 variants, and 2 nM terbium-coupled streptavidin (Invitrogen) in an assay buffer containing 50 mM HEPES pH 8.0, 200 mM NaCl, 0.1% Pluronic F-68 solution (Sigma), 0.5% bovine serum albumin (BSA) (w/v) and 1 mM TCEP. […] The TR-FRET signal of each data point was extracted by calculating the 520/490 nm ratio.

glutathione = experiment: GSH stability (glutathione reactivity) assay by LC-MS/MS; format: physicochemical; settings: PBS containing 5 mM reduced glutathione; PBS + 5 mM GSH; extrapolated from 240 min assay
Source text: Furthermore, we wanted to determine the kinetics of the BRD4BD2-DCAF16 interaction given its covalent nature. […] Additionally, to understand the relationship between ternary complex formation kinetics and warhead reactivity we measured the depletion of the covalent analogs in the presence of glutathione using MS (Table S2). […].

[3] = as above; format: physicochemical; settings: phosphate buffered saline (PBS) without glutathione, extrapolated from 240 min assay
BRD4BD2 [4] = biological target: T1, BRD4BD2; experiment: BRD4BD2-eGFP and mCherry flow reporter degradation assay, wild type K562 cells; settings: for Dmax: K562, read-out: maximal degradation (Dmax/16h) of BRD4BD2, K562 cells, 16 h incubation; for increase in degradation potency in comparison to GNE011: BRD4BD2 reporter, 16 h; for DC50: read-out: DC50 of BRD4BD2 degradation
Source text: This assay involves the co-expression of mCherry with BRD4BD1/2 fused to an enhanced green fluorescent protein (eGFP) tag, and the subsequent fluorescence measurement of BRD4BD1/2-eGFP normalized to mCherry as a readout for BRD4BD1/2 degradation. It allows for a quantitative, rapid, and facile screening of several MGDs, in a dose-and time-dependent manner. […] Thus, the BRD4BD2 stability system was used to test all subsequent GNE011 analogs in wild type and DCAF16−/− cells.
One day after infection, reporter cells were selected with puromycin at a concentration of 2 μg/mL.
(§5) K562 cells stably expressing degradation reporter were dosed with DMSO or degraders at various times and concentrations using D300e Digital Dispenser (HP). The fluorescent signal was quantified by flow cytometry (LSRFortessa flow cytometer, BD Biosciences) and analyzed using FlowJo (flow cytometry analysis software, BD Biosciences). The geometric mean of the eGFP and mCherry fluorescent signal for round and mCherry-positive cells was calculated. GFP expression was normalized to mCherry signal and drug treatments were compared to DMSO controls.

BRD4 [5] = biological target: T3, BRD4 (Homo sapiens, UniProt O60885); experiment: Western blot of BRD4 degradation, wild-type K562 cells; format: cell-based; design: an 11 amino acid peptide knock-in tag to a protein-of-interest using CRISPR insertion; endogenous in cells; settings: wild-type K562, 1 μM, 16 h
Procedure: (§1) Western blotting was used to determine the degradation potencies of the covalent BRD4 degraders.
(§2) Cells were washed with PBS and lysed in RIPA lysis buffer (Thermo Fisher Scientific) with Halt Protease Inhibitor Cocktail (Thermo Fisher Scientific) and Benzonase (Sigma-Aldrich) for 20 min on ice. The insoluble fraction was removed by centrifugation, the protein concentration was quantified using a BCA protein assay kit (Thermo Fisher Scientific), and an equal amount of lysate was run on SDS–PAGE 4–12% Bis–Tris Protein Gels (Thermo Fisher Scientific) and then transferred to nitrocellulose membrane with a XCell II Blot Module Wet Tank Transfer System (Thermo Fisher Scientific). Membranes were blocked in Intercept (PBS) Blocking Buffer (LI-COR Biosciences) and incubated with primary antibodies overnight at 4 °C. The membranes were then washed in Tris-buffered saline with Tween-20 (TBS-T), incubated for 1 h with secondary IRDye-conjugated antibodies (LI-COR Biosciences) and washed three times in TBS-T for 5 min before near-infrared western blot detection on an Odyssey Imaging System (LI-COR Biosciences).

BRD4 [6] = biological target: T3, BRD4; experiment: Washout experiment, Western blot of BRD4 degradation in K562 cells; format: cell-based; design: an 11 amino acid peptide knock-in tag to a protein-of-interest using CRISPR insertion; endogenous in cells; settings: K562, 1 μM; for BRD4 degradation after washout compared to no washout (in words): 4 h treatment, 20 h compound-free vs 24 h no washout
Procedure: This experiment involves cell treatment and incubation with a ‘covalent’ compound, followed by a wash-step where the cells are washed and resuspended in compound-free cell media.
Cells were washed with PBS and lysed in RIPA lysis buffer (Thermo Fisher Scientific) with Halt Protease Inhibitor Cocktail (Thermo Fisher Scientific) and Benzonase (Sigma-Aldrich) for 20 min on ice. […] Membranes were blocked in Intercept (PBS) Blocking Buffer (LI-COR Biosciences) and incubated with primary antibodies overnight at 4 °C. The membranes were then washed in Tris-buffered saline with Tween-20 (TBS-T), incubated for 1 h with secondary IRDye-conjugated antibodies (LI-COR Biosciences) and washed three times in TBS-T for 5 min before near-infrared western blot detection on an Odyssey Imaging System (LI-COR Biosciences).

BRD4BD2 [7] = biological target: T1, BRD4BD2; experiment: BRD4BD2-eGFP and mCherry flow reporter degradation assay, DCAF16 KO K562 cells
Source text: In order to investigate the degradation of BRD4 by GNE011 and related analogs, we used a fluorescent stability reporter assay reported previously (Fig. 2A) [17]. This assay involves the co-expression of mCherry with BRD4BD1/2 fused to an enhanced green fluorescent protein (eGFP) tag, and the subsequent fluorescence measurement of BRD4BD1/2-eGFP normalized to mCherry as a readout for BRD4BD1/2 degradation. It allows for a quantitative, rapid, and facile screening of several MGDs, in a dose-and time-dependent manner. […] Thus, the BRD4BD2 stability system was used to test all subsequent GNE011 analogs in wild type and DCAF16−/− cells.
Lentivirus containing sgRNA was transduced to 2 × 10^6 of K562-Cas9 cells at 10% volume ratio by spin infection. FACS sorting was performed to enrich BFP+ cells one week after infection. […] Clonal sgDCAF16-expressing K562-Cas9 cells were isolated after one month of expansion, and the genomic sequences were validated via deep sequencing of PCR amplicons targeting sgDCAF16 cutting sites (MGH CCIB DNA Core Service).
as §5

BRD4 [8] = biological target: T3, BRD4; experiment: Western blot of BRD4 degradation, DCAF16 KO K562 cells; format: cell-based; design: an 11 amino acid peptide knock-in tag to a protein-of-interest using CRISPR insertion; endogenous in cells; settings: DCAF16 KO K562, 1 μM, 16 h
Procedure: as §1, §2

BRD4 [9] = biological target: T3, BRD4; experiment: BRD4-HiBiT assay, WT JURKAT cells; format: cell-based; design: an 11 amino acid peptide knock-in tag to a protein-of-interest using CRISPR insertion; endogenous in cells; host or cells: JURKAT, HiBiT-edited (wild type or DCAF16 knockout); settings: 6 h; for BRD4 degradation: at <100 nM
Procedure: (§3) Thereafter, we sought to characterize the BRD4 cellular degradation potencies in a dose-dependent manner at a shorter time point to minimize secondary effects. This was performed using the bioluminescent HiBiT-BRD4 assay, which consists of an 11 amino acid peptide knock-in tag to a protein-of-interest using CRISPR insertion. A complementary polypeptide (LgBiT) detects and interacts with all HiBiT tagged proteins, thereby reconstituting a luminescent NanoBiT enzyme, that can be quantified by its bioluminescence. WT and DCAF16 KO JURKAT cell lines expressing the BRD4-HiBiT system were generated to quantify dose-dependent BRD4 degradation after 6 h incubation (Fig. 4C).
(§4) After 6 h, the plates were subjected to Nano-Glo HiBiT Lytic detection system (Promega, #N3040) as described in manufacturer's manual. The assays were performed in biological triplicate. DC50 values were determined using a non-linear regression curve fit in GraphPad PRISM 9.5.1.

BRD4 [10] = biological target: T3, BRD4; experiment: BRD4-HiBiT assay, DCAF16 KO JURKAT cells; format: cell-based; design: an 11 amino acid peptide knock-in tag to a protein-of-interest using CRISPR insertion; endogenous in cells; host or cells: JURKAT, HiBiT-edited (wild type or DCAF16 knockout); settings: 6 h
Procedure: as §3, §4

T2 sequence (Q9NXF7 whole entry, other chains not shown): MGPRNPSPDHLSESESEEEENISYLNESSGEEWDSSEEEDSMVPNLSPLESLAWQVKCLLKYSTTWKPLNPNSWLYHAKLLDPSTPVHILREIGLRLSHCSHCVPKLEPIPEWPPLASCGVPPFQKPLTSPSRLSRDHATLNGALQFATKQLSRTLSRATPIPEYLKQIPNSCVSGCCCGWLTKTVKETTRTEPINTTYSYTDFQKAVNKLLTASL

Structure (SMILES) | pIC50 (BRD4BD1) | pIC50 (BRD4BD2 [1]) | TR-FRETmax (520 nm/490 nm ratio) [2] | half-life (glutathione) | half-life [3] | Dmax (BRD4BD2 [4]) | maximal degradation (Dmax/16h) of BRD4BD2 (BRD4BD2 [4]; K562 cells, 16 h incubation) | BRD4 degradation by Western blot (in words) (BRD4 [5]) | BRD4 degradation after washout compared to no washout (in words) (BRD4 [6]) | incubation time of saturation / maximum TR-FRET signal [2] | increase in degradation potency in comparison to GNE011 (BRD4BD2 [4]; K562 cells) | DC50 (BRD4BD2 [4]; K562 cells, 16 h incubation) | BRD4BD2 degradation activity in DCAF16 knockout cells (in words) (BRD4BD2 [7]) | BRD4 degradation by Western blot in DCAF16 KO (in words) (BRD4 [8]) | BRD4 degradation (in words) (BRD4 [9]) | BRD4 degradation (BRD4 [9]) | BRD4 degradation in DCAF16 KO (in words) (BRD4 [10]) | BRD4BD2-DCAF16 ternary complex formation / DCAF16 recruitment (in words) [2] | DCAF16 dependent BRD4BD2 degradation (in words) (BRD4BD2 [4]; K562 cells, 16 h incubation) | BRD4 degradation without washout (in words) (BRD4 [6]; 24 h no washout)
Cc1sc2c(c1C)C(c1ccc(C#CCN)cc1)=N[C@@H](CC(=O)OC(C)(C)C)c1nnc(C)n1-2 [GNE011, tert-butyl (S)-2-(4-(4-(3-aminoprop-1-yn-1-yl)phenyl)-2,3,9-trimethyl-6H-thieno[3,2-f][1,2,4]triazolo[4,3-a][1,4]diazepin-6-yl)acetate, reference compound] | 7.95 | 8.11 | 0.18 | 11.3 h | > 12.5 h | ~50% | 49% | moderate degradation | nearly a complete rescue | – | – | – | – | – | – | – | – | – | – | –
C=CC(=O)Nc1ccc(C2=N[C@@H](CC(=O)OC(C)(C)C)c3nnc(C)n3-c3sc(C)c(C)c32)cc1 [MMH1, tert-butyl (S)-2-(4-(4-acrylamidophenyl)-2,3,9-trimethyl-6H-thieno[3,2-f][1,2,4]triazolo[4,3-a][1,4]diazepin-6-yl)acetate] | 7.75 | 7.81 | 1.78 | 9.53 h | – | 95% | – | nearly complete BRD4 degradation | no or minimal difference | 24 h | ~ 3333 fold | 0.3 nM | almost entirely ablated | completely rescued by DCAF16 KO | noticeable BRD4 degradation | > 90% | completely rescued by DCAF16 KO | – | – | –
C=CS(=O)(=O)Nc1ccc(C2=N[C@@H](CC(=O)OC(C)(C)C)c3nnc(C)n3-c3sc(C)c(C)c32)cc1 [MMH2, tert-butyl (S)-2-(2,3,9-trimethyl-4-(4-(vinylsulfonamido)phenyl)-6H-thieno[3,2-f][1,2,4]triazolo[4,3-a][1,4]diazepin-6-yl)acetate] | 7.31 | – | 3.75 | > 12.5 h | – | 95% | – | nearly complete BRD4 degradation | no or minimal difference | 1 h | ~1000 fold | 1 nM | almost entirely ablated | completely rescued by DCAF16 KO | noticeable BRD4 degradation | > 90% | completely rescued by DCAF16 KO | – | – | –
Cc1sc2c(c1C)C(c1ccc(/C=C/C(N)=O)cc1)=N[C@@H](CC(=O)OC(C)(C)C)c1nnc(C)n1-2 [MMH271, tert-butyl (S,E)-2-(4-(4-(3-amino-3-oxoprop-1-en-1-yl)phenyl)-2,3,9-trimethyl-6H-thieno[3,2-f][1,2,4]triazolo[4,3-a][1,4]diazepin-6-yl)acetate] | 8.09 | 8.12 | 0.14 | > 12.5 h | > 12.5 h | – | – | – | – | – | – | – | – | – | – | – | – | no significant DCAF16 recruitment | almost no DCAF16 dependent BRD4BD2 degradation | showed BRD4 degradation in 24 h no washout experiments
Cc1sc2c(c1C)C(c1ccc(C#CC(N)=O)cc1)=N[C@@H](CC(=O)OC(C)(C)C)c1nnc(C)n1-2 [MMH287, tert-butyl (S)-2-(4-(4-(3-amino-3-oxoprop-1-yn-1-yl)phenyl)-2,3,9-trimethyl-6H-thieno[3,2-f][1,2,4]triazolo[4,3-a][1,4]diazepin-6-yl)acetate] | 7.89 | – | 0.15 | 6.33 h | > 12.5 h | 69% | – | nearly complete BRD4 degradation | nearly a complete rescue | – | – | 51 nM | – | completely rescued by DCAF16 KO | noticeable BRD4 degradation | – | completely rescued by DCAF16 KO | almost no increase in ternary complex formation | – | –
